Like-named read-outs stand apart in the source and are kept apart here.
Molecular target: T1, PD-1/PD-L1 (Homo sapiens, UniProt Q9NZQ7)
T1 construct: made in house; host or cells: HEK293T
Assay: PD-1/PD-L1 Homogenous Time-Resolved Fluorescence (HTRF) binding assay
Conditions: PD-L1-His 10 nM, PD-1-Ig 20 nM, read-out: Range or IC50
In short: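 dPBS + 0.1% BSA + 0.05% Tween-20 buffer; Eu-cryptate anti-Ig 1 nM final, APC anti-His 20 nM final; HTRF read. Counter-assays: PD-1-Ig/PD-L2-His 20 & 5 nM, CD80-His/PD-L1-Ig 100 & 10 nM.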

T1 sequence (Q9NZQ7 with tags, fused parts or gaps): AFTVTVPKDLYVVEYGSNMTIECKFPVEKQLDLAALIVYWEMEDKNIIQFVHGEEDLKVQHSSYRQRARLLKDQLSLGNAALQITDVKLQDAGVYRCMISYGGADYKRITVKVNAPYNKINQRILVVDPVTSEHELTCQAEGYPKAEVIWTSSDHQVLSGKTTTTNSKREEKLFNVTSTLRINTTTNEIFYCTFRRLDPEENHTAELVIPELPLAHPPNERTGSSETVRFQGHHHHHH

Row | SMILES | IC50 (numeric IC50) [nM] | IC50 (value given as range class) [nM]
1 | Cc1c(COc2cc(OCc3cncc(C#N)c3)c(C(C)NC(CO)CO)cc2Cl)cccc1-c1cccc(OCCCN2CC[C@@H](O)C2)c1C (stereo partly drawn) [Example 4137, 5-((4-chloro-2-(1-((1,3-dihydroxypropan-2-yl)amino)ethyl)-5-((3′-(3-((R)-3-hydroxypyrrolidin-1-yl)propoxy)-2,2′-dimethyl-[1,1′-biphenyl]-3-yl)methoxy)phenoxy)methyl)nicotinonitrile] | 3 | –
2 | Cc1c(COc2cc(OCc3cncc(C#N)c3)c(C(C)N3C[C@H](O)C[C@H]3C(=O)O)cc2Cl)cccc1-c1cccc(OCCCN2CC[C@@H](O)C2)c1C (stereo partly drawn) [Example 4138, (2S,4R)-1-(1-(5-chloro-2-((5-cyanopyridin-3-yl)methoxy)-4-((3′-(3-((R)-3-hydroxypyrrolidin-1-yl)propoxy)-2,2′-dimethyl-[1,1′-biphenyl]-3-yl)methoxy)phenyl)ethyl)-4-hydroxypyrrolidine-2-carboxylic Acid] | – | 0.21 to 10
3 | Cc1c(COc2cc(OCc3cncc(C#N)c3)c(C(C)N(C)[C@@H](CO)C(=O)O)cc2Cl)cccc1-c1cccc(OCCCN2CC[C@@H](O)C2)c1C (stereo partly drawn) [Example 4139, N-(1-(5-chloro-2-((5-cyanopyridin-3-yl)methoxy)-4-((3′-(3-((R)-3-hydroxypyrrolidin-1-yl)propoxy)-2,2′-dimethyl-[1,1′-biphenyl]-3-yl)methoxy)phenyl)ethyl)-N-methyl-L-serine] | – | 0.21 to 10
4 | Cc1c(COc2cc(OCc3cncc(C#N)c3)c(C(C)N(C)C(CO)CO)cc2Cl)cccc1-c1cccc(OCCCN2CC[C@@H](O)C2)c1C (stereo partly drawn) [Example 4140, 5-((4-chloro-2-(1-((1,3-dihydroxypropan-2-yl)(methyl)amino)ethyl)-5-((3′-(3-((R)-3-hydroxypyrrolidin-1-yl)propoxy)-2,2′-dimethyl-[1,1′-biphenyl]-3-yl)methoxy)phenoxy)methyl)nicotinonitrile] | – | 0.21 to 10
5 | Cc1c(COc2cc(OCc3cncc(C#N)c3)c(C(C)N[C@@H](CO)C(=O)O)cc2Cl)cccc1-c1cccc(OCCCN2CC[C@@H](O)C2)c1C (stereo partly drawn) [Example 4141, (1-(5-chloro-2-((5-cyanopyridin-3-yl)methoxy)-4-((3′-(3-((R)-3-hydroxypyrrolidin-1-yl)propoxy)-2,2′-dimethyl-[1,1′-biphenyl]-3-yl)methoxy)phenyl)ethyl)-L-serine] | – | 0.21 to 10
6 | Cc1c(COc2cc(OCc3cncc(C#N)c3)c(CNCC(=O)O)cc2Cl)cccc1-c1cccc(OCCCN2CC[C@@H](O)C2)c1C [Example 4147, (R)-(5-chloro-2-((5-cyanopyridin-3-yl)methoxy)-4-((3′-(3-(3-hydroxypyrrolidin-1-yl)propoxy)-2,2′-dimethyl-[1,1′-biphenyl]-3-yl)methoxy)benzyl)glycine] | – | 0.21 to 10
7 | Cc1c(COc2cc(OCc3cncc(C#N)c3)c(CN[C@H](C(=O)O)[C@@H](C)O)cc2Cl)cccc1-c1cccc(OCCCN2CC[C@@H](O)C2)c1C [Example 4148, (5-chloro-2-((5-cyanopyridin-3-yl)methoxy)-4-((3′-(3-((R)-3-hydroxypyrrolidin-1-yl)propoxy)-2,2′-dimethyl-[1,1′-biphenyl]-3-yl)methoxy)benzyl)-L-threonine] | – | 0.21 to 10
8 | Cc1c(COc2cc(OCc3cncc(C#N)c3)c(CNCCC(=O)O)cc2Cl)cccc1-c1cccc(OCCCN2CC[C@@H](O)C2)c1C [Example 4149, (R)-3-((5-chloro-2-((5-cyanopyridin-3-yl)methoxy)-4-((3′-(3-(3-hydroxypyrrolidin-1-yl)propoxy)-2,2′-dimethyl-[1,1′-biphenyl]-3-yl)methoxy)benzyl)amino)propanoic Acid] | – | 0.21 to 10
9 | Cc1c(COc2cc(OCc3cncc(C#N)c3)c(CN[C@H](C(=O)O)C(C)C)cc2Cl)cccc1-c1cccc(OCCCN2CC[C@@H](O)C2)c1C [Example 4150, (5-chloro-2-((5-cyanopyridin-3-yl)methoxy)-4-((3′-(3-((R)-3-hydroxypyrrolidin-1-yl)propoxy)-2,2′-dimethyl-[1,1′-biphenyl]-3-yl)methoxy)benzyl)-L-valine] | – | 0.21 to 10
10 | CCCC[C@H](NCc1cc(Cl)c(OCc2cccc(-c3cccc(OCCCN4CC[C@@H](O)C4)c3C)c2C)cc1OCc1cncc(C#N)c1)C(=O)O [Example 4151, (S)-2-((5-chloro-2-((5-cyanopyridin-3-yl)methoxy)-4-((3′-(3-((R)-3-hydroxypyrrolidin-1-yl)propoxy)-2,2′-dimethyl-[1,1′-biphenyl]-3-yl)methoxy)benzyl)amino)hexanoic Acid] | – | 0.21 to 10
11 | Cc1c(COc2cc(OCc3cncc(C#N)c3)c(CN[C@@H](Cc3ccccc3)C(=O)O)cc2Cl)cccc1-c1cccc(OCCCN2CC[C@@H](O)C2)c1C [Example 4152, (5-chloro-2-((5-cyanopyridin-3-yl)methoxy)-4-((3′-(3-((R)-3-hydroxypyrrolidin-1-yl)propoxy)-2,2′-dimethyl-[1,1′-biphenyl]-3-yl)methoxy)benzyl)-L-phenylalanine] | – | 0.21 to 10
12 | Cc1c(COc2cc(OCc3cncc(C#N)c3)c(CN[C@@H](CC(C)C)C(=O)O)cc2Cl)cccc1-c1cccc(OCCCN2CC[C@@H](O)C2)c1C [Example 4153, (5-chloro-2-((5-cyanopyridin-3-yl)methoxy)-4-((3′-(3-((R)-3-hydroxypyrrolidin-1-yl)propoxy)-2,2′-dimethyl-[1,1′-biphenyl]-3-yl)methoxy)benzyl)-L-leucine] | – | 0.21 to 10
13 | CCC[C@H](NCc1cc(Cl)c(OCc2cccc(-c3cccc(OCCCN4CC[C@@H](O)C4)c3C)c2C)cc1OCc1cncc(C#N)c1)C(=O)O [Example 4154, (S)-2-((5-chloro-2-((5-cyanopyridin-3-yl)methoxy)-4-((3′-(3-((R)-3-hydroxypyrrolidin-1-yl)propoxy)-2,2′-dimethyl-[1,1′-biphenyl]-3-yl)methoxy)benzyl)amino)pentanoic Acid] | – | 0.21 to 10
14 | C=CC[C@H](NCc1cc(Cl)c(OCc2cccc(-c3cccc(OCCCN4CC[C@@H](O)C4)c3C)c2C)cc1OCc1cncc(C#N)c1)C(=O)O [Example 4155, (S)-2-((5-chloro-2-((5-cyanopyridin-3-yl)methoxy)-4-((3′-(3-((R)-3-hydroxypyrrolidin-1-yl)propoxy)-2,2′-dimethyl-[1,1′-biphenyl]-3-yl)methoxy)benzyl)amino)pent-4-enoic Acid] | – | 0.21 to 10
15 | Cc1c(COc2cc(OCc3cncc(C#N)c3)c(CN[C@H](C(=O)O)c3ccccc3)cc2Cl)cccc1-c1cccc(OCCCN2CC[C@@H](O)C2)c1C [Example 4156, (S)-2-((5-chloro-2-((5-cyanopyridin-3-yl)methoxy)-4-((3′-(3-((R)-3-hydroxypyrrolidin-1-yl)propoxy)-2,2′-dimethyl-[1,1′-biphenyl]-3-yl)methoxy)benzyl)amino)-2-phenylacetic Acid] | – | 0.21 to 10
16 | Cc1c(COc2cc(OCc3cncc(C#N)c3)c(CN[C@@H](Cc3ccc(O)cc3)C(=O)O)cc2Cl)cccc1-c1cccc(OCCCN2CC[C@@H](O)C2)c1C [Example 4157, (5-chloro-2-((5-cyanopyridin-3-yl)methoxy)-4-((3′-(3-((R)-3-hydroxypyrrolidin-1-yl)propoxy)-2,2′-dimethyl-[1,1′-biphenyl]-3-yl)methoxy)benzyl)-L-tyrosine] | 3 | –
17 | Cc1c(COc2cc(OCc3cc(Cl)cc(Cl)c3)c(CNC(CO)CO)cc2Cl)cccc1-c1cccc(OCCCN2CC[C@@H](O)C2)c1C [Example 4501, (R)-2-((5-chloro-2-((3,5-dichlorobenzyl)oxy)-4-((3′-(3-(3-hydroxypyrrolidin-1-yl)propoxy)-2,2′-dimethyl-[1,1′-biphenyl]-3-yl)methoxy)benzyl)amino)propane-1,3-diol] | – | 0.21 to 10
18 | Cc1c(COc2cc(OCc3cc(Cl)cc(Cl)c3)c(CNC(CO)(CO)CO)cc2Cl)cccc1-c1cccc(OCCCN2CC[C@@H](O)C2)c1C [Example 4502, (R)-2-((5-chloro-2-((3,5-dichlorobenzyl)oxy)-4-((3′-(3-(3-hydroxypyrrolidin-1-yl)propoxy)-2,2′-dimethyl-[1,1′-biphenyl]-3-yl)methoxy)benzyl)amino)-2-(hydroxymethyl)propane-1,3-diol] | – | 0.21 to 10
19 | Cc1c(COc2cc(OCc3cc(Cl)cc(Cl)c3)c(CN3CCCC[C@H]3C(=O)O)cc2Cl)cccc1-c1cccc(OCCCN2CC[C@@H](O)C2)c1C [Example 4503, (S)-1-(5-chloro-2-((3,5-dichlorobenzyl)oxy)-4-((3′-(3-((R)-3-hydroxypyrrolidin-1-yl)propoxy)-2,2′-dimethyl-[1,1′-biphenyl]-3-yl)methoxy)benzyl)piperidine-2-carboxylic Acid] | – | 0.21 to 10
20 | Cc1c(COc2cc(OCc3cc(Cl)cc(Cl)c3)c(CNC(C)(CO)CO)cc2Cl)cccc1-c1cccc(OCCCN2CC[C@@H](O)C2)c1C [Example 4504, (R)-2-((5-chloro-2-((3,5-dichlorobenzyl)oxy)-4-((3′-(3-(3-hydroxypyrrolidin-1-yl)propoxy)-2,2′-dimethyl-[1,1′-biphenyl]-3-yl)methoxy)benzyl)amino)-2-methylpropane-1,3-diol] | – | 0.21 to 10
21 | Cc1ccc(COc2cc(OCc3cccc(-c4cccc(OCCCN5CC[C@@H](O)C5)c4C)c3C)c(Cl)cc2CNC(CO)CO)cc1C [Example 4505, (R)-2-((5-chloro-2-((3,4-dimethylbenzyl)oxy)-4-((3′-(3-(3-hydroxypyrrolidin-1-yl)propoxy)-2,2′-dimethyl-[1,1′-biphenyl]-3-yl)methoxy)benzyl)amino)propane-1,3-diol] | – | 0.21 to 10
22 | Cc1ccc(COc2cc(OCc3cccc(-c4cccc(OCCCN5CC[C@@H](O)C5)c4C)c3C)c(Cl)cc2CNC(C)(CO)CO)cc1C [Example 4506, (R)-2-((5-chloro-2-((3,4-dimethylbenzyl)oxy)-4-((3′-(3-(3-hydroxypyrrolidin-1-yl)propoxy)-2,2′-dimethyl-[1,1′-biphenyl]-3-yl)methoxy)benzyl)amino)-2-methylpropane-1,3-diol] | 3 | –

— patent US10745382B2 (BRISTOL-MYERS SQUIBB COMPANY, priority 2015, dated 2020)
